Measurements published in patent publication US10206394B2, “Herbicidal compounds” (Syngenta Participations AG, priority 2014, dated 2019).
Like-named read-outs stand apart in the source and are kept apart here.

How the values were obtained:
Assay in all cases: Glasshouse assay for herbicidal activity (pre- and post-emergence), percentage phytotoxicity
Assay type in all cases: in vivo
[1] = test system: Avena fatua (AVEFA); details: Avena fatua, Rate 250 g/ha, 100%=total damage, 0%=no damage
How it was run: (§1)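 Sow seed in standard soil in pots; apply test herbicide after 1 day (PRE) or about 12 days (POST). Grow on in the glasshouse, watering twice daily, cool-season species at 20/16 °C and warm-season at 24/18 °C. Score visible damage (0–100%) at 20 or 15 DAA respectively.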

[2] = test system: Echinochloa crus-galli (ECHCG); details: Echinochloa crus-galli, Rate 250 g/ha, 100%=total damage, 0%=no damage
How it was run: as §1

[3] = test system: Lolium perenne (LOLPE); details: Lolium perenne, Rate 250 g/ha, 100%=total damage, 0%=no damage
How it was run: as §1

[4] = test system: Alopecurus myosuroides (ALOMY); details: Alopecurus myosuroides, Rate 250 g/ha, 100%=total damage, 0%=no damage
How it was run: as §1

[5] = post-emergence, 360 h, post-emergence, visual assessment 15 DAA, read-out: Post-emergence herbicidal activity (percentage phytotoxicity) AVEFA POST
[6] = pre-emergence, 480 h, pre-emergence, visual assessment 20 DAA, read-out: Pre-emergence herbicidal activity (percentage phytotoxicity) AVEFA PRE
[7] = post-emergence, 360 h, post-emergence, visual assessment 15 DAA, read-out: Post-emergence herbicidal activity (percentage phytotoxicity) ECHCG POST
[8] = pre-emergence, 480 h, pre-emergence, visual assessment 20 DAA, read-out: Pre-emergence herbicidal activity (percentage phytotoxicity) ECHCG PRE
[9] = post-emergence, 360 h, post-emergence, visual assessment 15 DAA, read-out: Post-emergence herbicidal activity (percentage phytotoxicity) LOLPE POST
[10] = pre-emergence, 480 h, pre-emergence, visual assessment 20 DAA, read-out: Pre-emergence herbicidal activity (percentage phytotoxicity) LOLPE PRE
[11] = post-emergence, 360 h, post-emergence, visual assessment 15 DAA, read-out: Post-emergence herbicidal activity (percentage phytotoxicity) ALOMY POST
[12] = pre-emergence, 480 h, pre-emergence, visual assessment 20 DAA, read-out: Pre-emergence herbicidal activity (percentage phytotoxicity) ALOMY PRE

SMILES | pest or weed control at 250 g/ha [1, 5] [%] | pest or weed control at 250 g/ha [1, 6] [%] | pest or weed control at 250 g/ha [2, 7] [%] | pest or weed control at 250 g/ha [2, 8] [%] | pest or weed control at 250 g/ha [3, 9] [%] | pest or weed control at 250 g/ha [3, 10] [%] | pest or weed control at 250 g/ha [4, 11] [%] | pest or weed control at 250 g/ha [4, 12] [%]
Cc1cc(-c2ccc(Cl)cn2)cc(C)c1C1C(=O)CC(CC(=O)NCc2cccc(Br)c2)C1=O (stereo not drawn) [Compound B359] | 100 | 70 | 100 | 80 | 90 | 90 | 90 | 90
Cc1cc(-c2ccc(Cl)cn2)cc(C)c1C1C(=O)CC(CC(=O)NC(C)C)C1=O (stereo not drawn) [Compound B360] | 100 | 100 | 100 | 100 | 100 | 100 | 100 | 100
C=C(C)CNC(=O)CC1CC(=O)C(c2c(C)cc(-c3ccc(Cl)cn3)cc2C)C1=O (stereo not drawn) [Compound B361] | 100 | 100 | 100 | 100 | 90 | 90 | 100 | 90
Cc1cc(-c2ccc(Cl)cn2)cc(C)c1C1C(=O)CC(CC(=O)NCC2CC2)C1=O (stereo not drawn) [Compound B362] | 100 | 100 | 100 | 100 | 90 | 100 | 90 | 100
C#CC(C)(C)NC(=O)CC1CC(=O)C(c2c(C)cc(-c3ccc(Cl)cn3)cc2C)C1=O (stereo not drawn) [Compound B363] | 100 | 90 | 100 | 100 | 90 | 100 | 90 | 100
COCC(C)(C)NC(=O)CC1CC(=O)C(c2c(C)cc(-c3ccc(Cl)cn3)cc2C)C1=O (stereo not drawn) [Compound B364] | 90 | 80 | 90 | 90 | 90 | 90 | 100 | 100
C=CC(C)NC(=O)CC1CC(=O)C(c2c(C)cc(-c3ccc(Cl)cn3)cc2C)C1=O (stereo not drawn) [Compound B365] | 90 | 90 | 100 | 100 | 90 | 100 | 90 | 100
COCC(C)NC(=O)CC1CC(=O)C(c2c(C)cc(-c3ccc(Cl)cn3)cc2C)C1=O (stereo not drawn) [Compound B366] | 100 | 100 | 100 | 100 | 90 | 100 | 90 | 100
CCN(C)C(=O)CC1CC(=O)C(c2c(C)cc(-c3ccc(Cl)cn3)cc2C)C1=O (stereo not drawn) [Compound B367] | 100 | 100 | 100 | 100 | 100 | 100 | 90 | 90
Cc1cc(-c2ccc(Cl)cn2)cc(C)c1C1C(=O)CC(CC(=O)N(C)C(C)(C)C)C1=O (stereo not drawn) [Compound B368] | 100 | 90 | 100 | 100 | 100 | 100 | 90 | 90
C#CCN(C)C(=O)CC1CC(=O)C(c2c(C)cc(-c3ccc(Cl)cn3)cc2C)C1=O (stereo not drawn) [Compound B369] | 100 | 100 | 100 | 100 | 90 | 100 | 90 | 100
C=CCNC(=O)CC1CC(=O)C(c2c(C)cc(-c3ccc(Cl)cn3)cc2C)C1=O (stereo not drawn) [Compound B370] | 100 | 100 | 100 | 100 | 100 | 100 | 90 | 100
Cc1cc(-c2ccc(Cl)cn2)cc(C)c1C1C(=O)CC(CC(=O)N(C)C(C)C)C1=O (stereo not drawn) [Compound B371] | 100 | 90 | 100 | 100 | 100 | 100 | 100 | 90
Cc1cc(-c2ccc(Cl)cn2)cc(C)c1C1C(=O)CC(CC(=O)NC/C=C/Cl)C1=O (stereo not drawn) [Compound B372] | 100 | 100 | 100 | 100 | 90 | 100 | 90 | 90
Cc1cc(-c2ccc(Cl)cn2)cc(C)c1C1C(=O)CC(CC(=O)NCc2cccs2)C1=O (stereo not drawn) [Compound B373] | 100 | 80 | 100 | 100 | 80 | 100 | 80 | 70
Cc1cc(-c2ccc(Cl)cn2)cc(C)c1C1C(=O)CC(CC(=O)NCc2cccc(Cl)c2)C1=O (stereo not drawn) [Compound B374] | 100 | 90 | 100 | 90 | 90 | 90 | 90 | 70
Cc1ccc(CNC(=O)CC2CC(=O)C(c3c(C)cc(-c4ccc(Cl)cn4)cc3C)C2=O)cc1 (stereo not drawn) [Compound B375] | 70 | 70 | 100 | 90 | 80 | 80 | 40 | 60
C=Cc1cc(-c2ccc(Cl)cn2)cc(C)c1C1C(=O)CC(CC(=O)NC(C)(C)C)C1=O (stereo not drawn) [Compound B376] | 90 | 80 | 100 | 60 | 100 | 60 | 90 | 30
Cc1cc(-c2ccc(F)cc2)cc(C)c1C1C(=O)CC(CC(=O)NC(C)(C)C#N)C1=O (stereo not drawn) [Compound B377] | 100 | 90 | 90 | 100 | 30 | 80 | 90 | 90
Cc1cc(-c2ccc(Cl)cc2)cc(C)c1C1C(=O)CC(CC(=O)NC(C)(C)C#N)C1=O (stereo not drawn) [Compound B378] | 100 | 90 | 100 | 90 | 70 | 80 | 80 | 70
CC#Cc1cc(C)c(C2C(=O)CC(CC(=O)NC(C)(C)C#N)C2=O)c(C)c1 (stereo not drawn) [Compound B379] | 90 | 70 | 90 | 70 | 60 | 70 | 90 | 90
